According to patent US20250326794A1, “ANTI-CANCER LEUCINE-RICH PEPTIDES AND USES THEREOF” (KING'S COLLEGE LONDON, priority 2019, published 2025):

Assays:
[1] = Tryptophan fluorescent binding assay, POPC vesicles; details: 50 μM peptide, PBS pH 7.4, lipid per peptide
Experimental: (§1) In brief, 50 μM peptides were fixed and incubated with titrated POPC vesicles (black) or 3POPC/1POPG vesicles (grey) at concentrations of 0, 12.5, 25, 50, 100, 250, 500, 1000, 2500, and 5000 μM in phosphate buffered saline (1×, pH 7.4). The lipid concentration that causes 50% peptide binding was determined using a tryptophan fluorescent binding assay and the values are shown as lipid per peptide.
(§2) The lipids 1-palmitoyl-2-oleoyl-sn-glycero-3-phosphocholine (POPC), 1-palmitoyl-2-oleoyl-snglycero-3-phospho-(1′-rac-glycerol) (POPG) were purchased from Avanti Polar Lipids and dissolved in chloroform. Large unilamellar vesicles (LUVs) were produced by extrusion through 100 nm pore filter using an extruder and filters purchased from Avanti Polar Lipids.
(§3) Peptides (50 μM) and POPC/POPG LUVs (600 μM) were prepared in 10 mM phosphate buffer (pH 7.0). The solutions were incubated and measured after 60 minutes. Excitation was fixed at 280 nm (slit 9 nm) and emission was collected from 300 to 450 nm (slit 9 nm). The spectra were recorded using a Synergy H1 Hybrid Multi-Mode Reader (FIG. 3A) and Cytation™ 5 Cell Imaging Multi-Mode Reader (FIG. 2) from BioTek and were averaged over 3 scans.
(§4) Table 3 illustrates the lipid concentration-induced 50% peptide binding onto a liposome. 50 μM peptide was fixed and incubated with titrated lipid (POPC vesicles or 3POPC/1POPG vesicles) at concentrations of 0, 12.5, 25, 50, 100, 250, 500, 1000, 2500, and 5000 μM in phosphate buffered saline (1×, pH 7.4). The lipid concentration that causes 50% peptide binding was determined using tryptophan fluorescent binding assay and the values are shown as lipid per peptide. †N-terminus is free, C-terminus: —W—NH2.

[2] = ANTS/DPX liposome leakage assay, POPC vesicles; assay type: biochemical; details: 0.5 mM vesicles; for Peptide Concentration-induced 50% ANTS/DPX leakage at pH 4.8, POPC Vesicle: pH 4.8, lipid per peptide; for Peptide Concentration-induced 50% ANTS/DPX leakage at pH 7.4, POPC Vesicle: pH 7.4, lipid per peptide
Experimental: (§5) In brief, 0.5 mM POPC vesicles (grey) or POPC:POPG vesicles (ratio 3:1, black) were incubated with peptide concentrations of 0, 0.02, 0.04, 0.08, 0.16, 0.32, 0.64, 1.25, 2.5, 5, 10, and 20 μM in each A) hydrochloric acid-adjusted phosphate buffered saline (1×, pH 4.8) and B) phosphate buffered saline (1×, pH 7.4).
as §2
(§6) 5 mM ANTS (8-aminonaphthalene-1,3,6-trisulfonic acid, disodium salt) and 12.5 mM DPX (p-xylene-bis-pyridinium bromide) were entrapped in 0.1 μm diameter extruded vesicles with lipids. Gel filtration chromatography using a Sephadex G-100 (GE Healthcare Life Sciences Inc) was used to remove external free ANTS/DPX from LUVs with entrapped contents. LUVs were diluted to 0.5 mM and used to measure the leakage activity by addition of aliquots of peptides. Leakage was measured after 3 h incubation. 10% Triton was used as the positive control to measure the maximum leakage of the vesicle. Fluorescence emission spectra were recorded using excitation and emission wavelength of 350 nm and 510 nm for ANTS/DPX using a BioTek Synergy H1 Hybrid Multi-Mode Reader.
(§7) Table 4 illustrates peptide concentration-induced 50% ANTS/DPX liposome leakage. 0.5 mM POPC and 3POPC/1POPG vesicles were fixed and incubated with titrated peptide concentration ([…]) each in phosphate buffered saline (1×, pH 7.4) and hydrochloric acid-adjusted phosphate buffered saline (1×, pH 4.8). The values are shown as lipid per peptide. †N-terminus is free, C-terminus: —W—NH2.

[3] = test system: HMLER (human breast cancer bulk cell); test: cells; details: 72 h
Source text: (§8) HMLER (human mammary endothelial cancer cells), HMLER-shEcad (human mammary endothelial cancer stem cells), and MCF-10A (healthy human mammary endothelial) cells were maintained in Mammary Epithelial Cell Growth Medium (MEGM) with supplements and growth factors: bovine pituitary extract (BPE), hydrocortisone, human epidermal growth factor (hEGF), insulin, and gentamicin/amphotericin-B. HEK293T (human embryonic kidney cell), and U2OS (Homo sapiens bone osteosarcoma) cells were maintained in Dulbecco's Modified Eagle's Medium (DMEM) with a final concentration of 10% fetal bovine serum. The cells were grown in T75 flask at 310 K in a humidified atmosphere containing 5% CO2.
(§9) The colourimetric MTT (3-(4,5-dimethylthiazol-2-yl)-2,5-diphenyltetrazolium bromide) assay was used to determine the toxicity of the anticancer peptides and conventional anticancer drugs. 5×10^3 cells were seeded in each well of a 96-well microplate. The cells were incubated overnight. Elevated concentrations of the compounds (0, 0.1, 0.2, 0.4, 0.8, 1.6, 3.1, 6.3, 12.5, 25, 50 and 100 μM) were added and incubated for 72 hr with a total volume 200 μL. The stock solutions of the compounds were prepared as 5 mM solutions in DMSO and diluted using media or in pure water. The final concentration of DMSO in each well was either 0.5% or 0% and this amount was present in the untreated control. After 72 hr, 20 μL of a 4 mg/mL solution of MTT in PBS was added to each well, and the plate was incubated for an additional 4 hr. The MEGM/MTT mixture was aspirated and 100 μL of DMSO was added to dissolve the resulting purple formazan crystals. The absorbance of the solutions in each well was read at 550 nm wavelength. Absorbance values were normalized to either DMSO-containing or non DMSO-containing control wells and plotted as concentration of test compound versus % cell viability. IC50 values were interpolated from the resulting dose dependent curves.
(§10) The peptides were screened against several different human cell lines and their cytotoxicity were determined. Cell lines utilised include MCF-10A (human breast epithelial cell), HMLER (human breast cancer bulk cell), HMLER-shEcad (human breast cancer stem cell), HEK293T (human embryonic kidney cell), and U2OS (human bone osteosarcoma).

[4] = test system: HEK293T (human embryonic kidney cell); test: cells; details: 72 h
Source text: as §8, §9, §10

[5] = test system: HMLER-shEcad (human breast cancer stem cell); test: cells; details: 72 h
Source text: as §8, §9, §10

[6] = Tryptophan fluorescent binding assay, 3POPC/1POPG vesicles; details: 50 μM peptide, PBS pH 7.4, lipid per peptide
Experimental: as §1, §2, §3, §4

[7] = test system: U2OS (human bone osteosarcoma); details: 72 h
Source text: as §8, §9, §10

[8] = ANTS/DPX liposome leakage assay, 3POPC/1POPG vesicles; assay type: biochemical; details: 0.5 mM vesicles; for Peptide Concentration-induced 50% ANTS/DPX leakage at pH 4.8, 3POPC/1POPG Vesicle: pH 4.8, lipid per peptide; for Peptide Concentration-induced 50% ANTS/DPX leakage at pH 7.4, 3POPC/1POPG Vesicle: pH 7.4, lipid per peptide
Experimental: as §5, §2, §6, §7

Compound	Lipid Concentration-induced 50% Peptide Binding, POPC Vesicle [1] [L/P]	Peptide Concentration-induced 50% ANTS/DPX leakage at pH 4.8, POPC Vesicle [2] [L/P]	Peptide Concentration-induced 50% ANTS/DPX leakage at pH 7.4, POPC Vesicle [2] [L/P]	IC50 [3] [µM]	IC50 [4] [µM]	IC50 [5] [µM]	Lipid Concentration-induced 50% Peptide Binding, 3POPC/1POPG Vesicle [6] [L/P]	IC50 [7] [µM]	Peptide Concentration-induced 50% ANTS/DPX leakage at pH 4.8, 3POPC/1POPG Vesicle [8] [L/P]	Peptide Concentration-induced 50% ANTS/DPX leakage at pH 7.4, 3POPC/1POPG Vesicle [8] [L/P]
CC(C)C[C@H](NC(=O)CN)C(=O)N[C@@H](CC(C)C)C(=O)N[C@@H](CC(=O)O)C(=O)N[C@@H](CC(C)C)C(=O)N[C@@H](CC(C)C)C(=O)N[C@@H](CCCCN)C(=O)N[C@@H](CC(C)C)C(=O)N[C@@H](CC(C)C)C(=O)N[C@@H](CC(C)C)C(=O)N[C@@H](CCC(=O)O)C(=O)N[C@@H](C)C(=O)N[C@@H](C)C(=O)NCC(=O)N[C@@H](Cc1c[nH]c2ccccc12)C(N)=O [DKE]	0.56	21	747	2.1	7.8 ± 1.41	1.57 ± 0.33	0.46	9.93 ± 0.25	469	411
CC(C)C[C@H](NC(=O)CN)C(=O)N[C@@H](CC(C)C)C(=O)N[C@@H](CC(=O)O)C(=O)N[C@@H](CC(C)C)C(=O)N[C@@H](CC(C)C)C(=O)N[C@@H](CCCCN)C(=O)N[C@@H](CC(C)C)C(=O)N[C@@H](CC(C)C)C(=O)N[C@@H](CC(C)C)C(=O)N[C@@H](Cc1c[nH]cn1)C(=O)N[C@@H](C)C(=O)N[C@@H](C)C(=O)NCC(=O)N[C@@H](Cc1c[nH]c2ccccc12)C(N)=O [DKH]	10.00	41	614	3.45 ± 0.07	6.15 ± 1.34	2.8 ± 0.28	0.46	21.1 ± 3.01	58	274
CC(C)C[C@H](NC(=O)CN)C(=O)N[C@@H](CC(C)C)C(=O)N[C@@H](CC(=O)O)C(=O)N[C@@H](CC(C)C)C(=O)N[C@@H](CC(C)C)C(=O)N[C@@H](CCCCN)C(=O)N[C@@H](CC(C)C)C(=O)N[C@@H](CC(C)C)C(=O)N[C@@H](CC(C)C)C(=O)N[C@@H](CCCCN)C(=O)N[C@@H](C)C(=O)N[C@@H](C)C(=O)NCC(=O)N[C@@H](Cc1c[nH]c2ccccc12)C(N)=O [DKK]	2.75	47	463	1.95 ± 0.35	3.4 ± 0.28	1.2 ± 0.14	6.88	10.4 ± 1.7	227	156
CC(C)C[C@H](NC(=O)CN)C(=O)N[C@@H](CC(C)C)C(=O)N[C@@H](CCC(=O)O)C(=O)N[C@@H](CC(C)C)C(=O)N[C@@H](CC(C)C)C(=O)N[C@@H](Cc1c[nH]cn1)C(=O)N[C@@H](CC(C)C)C(=O)N[C@@H](CC(C)C)C(=O)N[C@@H](CC(C)C)C(=O)N[C@@H](Cc1c[nH]cn1)C(=O)N[C@@H](C)C(=O)N[C@@H](C)C(=O)NCC(=O)N[C@@H](Cc1c[nH]c2ccccc12)C(N)=O [EHH]	0.94	386	1043	25.4 ± 2.76	5.9 ± 0.14	16.1 ± 3.18	0.69	117 ± 7	80	981
CC(C)C[C@H](NC(=O)CN)C(=O)N[C@@H](CC(C)C)C(=O)N[C@@H](CCC(=O)O)C(=O)N[C@@H](CC(C)C)C(=O)N[C@@H](CC(C)C)C(=O)N[C@@H](Cc1c[nH]cn1)C(=O)N[C@@H](CC(C)C)C(=O)N[C@@H](CC(C)C)C(=O)N[C@@H](CC(C)C)C(=O)N[C@@H](CCCCN)C(=O)N[C@@H](C)C(=O)N[C@@H](C)C(=O)NCC(=O)N[C@@H](Cc1c[nH]c2ccccc12)C(N)=O [EHK]	0.56	55	981	1.35 ± 0.35	5.35 ± 0.07	0.71 ± 0.13	0.42	25	117	505
CC(C)C[C@H](NC(=O)CN)C(=O)N[C@@H](CC(C)C)C(=O)N[C@@H](CCC(=O)O)C(=O)N[C@@H](CC(C)C)C(=O)N[C@@H](CC(C)C)C(=O)N[C@@H](CCCCN)C(=O)N[C@@H](CC(C)C)C(=O)N[C@@H](CC(C)C)C(=O)N[C@@H](CC(C)C)C(=O)N[C@@H](CCC(=O)O)C(=O)N[C@@H](C)C(=O)N[C@@H](C)C(=O)NCC(=O)N[C@@H](Cc1c[nH]c2ccccc12)C(N)=O [EKE]	2.75	75	738	1.8 ± 0.28	5.15 ± 0.21	1.3 ± 0.14	1.63	8 ± 0.71	438	657
